In patent US7741472B2, “Polynucleotide containing a phosphate mimetic” (Roche Diagnostics Operations, Inc., priority 2005, dated 2010):
Strand notation (5' to 3'): a small letter for the sugar, then the base; units joined by * are phosphorothioate-linked, units joined directly phosphodiester-linked; [ ] holds rarer units or linkages, { } end groups; capitals alone tell only the bases. [RhoB] = phosphoramidate linkage P=N-S(O)2-rhodamine-B replacing P=O; d = 2'-deoxy (DNA); {P} = phosphate

Legend:
human Factor V DNA = experiment: Real time PCR with modified primers (crossing point); assay type: biochemical; conditions: LIGHTCYCLER 1.2, primer combinations SEQ ID NO: 1 / SEQ ID NO: 2, 640 nm channel
Description: A quantitative real time PCR of human Factor V DNA was carried out on a LIGHTCYCLER 1.2 instrument (Roche Diagnostics GmbH) in order to analyse the effect of phosphate mimetics on primer elongation. The P═N-pPh-NAc mimetic which was introduced at different positions of a primer pair used for amplification of human Factor V DNA. The modified primers were, synthesized according to example 4. Purification was done by the Reversed Phase chromatography of example 3 in the Trityl on mode. Detritylation was performed by treating with 80% acetic acid for 20 min.
This primers were used in combination with a pair of fluorescein/LIGHTCYCLER Red 640 FRET hybridization probes according to example 6. The Fluorescein probe and the 5′ LIGHTCYCLER Red 640 probe (SEQ ID NO: 3 and 4) were kept constant. Various combinations of modified and unmodified primers were tested. As reference unmodified primers were used. The effect on the crossing point which is a measure for the amplification efficiency was evaluated.
The real time monitoring was carried out over 45 cycles using the 2nd derivative threshold method in which, the fluorescence signal was measured in a detection channel that is specific for the LIGHTCYCLER Red 640 emission (at 640 nm) and the arithmetic background correction mode was used to normalize the initial signal.
The absolute fluorescence signals are measured as above in the 640 nm channel and subsequently the first derivative was calculated from this. The crossing points are shown in the following table as a measure for the amplification efficiency when using different modified primers.

factor V DNA = experiment: Real time PCR of factor V DNA with fluorescein/lissamine FRET hybridization probes; assay type: biochemical; conditions: LIGHTCYCLER 2.0, 610 nm channel, unmodified fluorescein donor probe
Description: Primers were used in combination with a pair of fluorescein/lissamine FRET hybridization probes where Lissamine (rhodamineB) acted as a FRET acceptor. Quantification curves were recorded and the cp value was determined as a function of the concentration of the target nucleic acid.
(§1) A teal time PCR and melting curve analysis were carried out according to example 6 for the amplification of 10^4 and 10^6 copies of a factor V DNA fragment. A fluorescein donor probe according to example 6 (SEQ ID NO: 4) which was not further modified and a FRET acceptor probe according to example 7b (SEQ ID NO: 3) were used for this.
The fluorescence signal was measured in the 610 nm detection channel. The 610/530 background correction mode was used to normalize the raw signal. A cp value of 22 was determined for 10^6 copies and a cp of 26 was determined for 10^4 copies.

[1] = system: factor V DNA fragment, wild type; experiment: Melting curve analysis with lissamine acceptor probe, wild type; assay type: binding; conditions: 10^6 copies
Description: as §1
(§2) The melting point for the wild type was determined as 64.69° C. and 56.24° C. was determined as the melting point for the mutant (10^6 copies).

[2] = system: factor V DNA fragment, mutant; experiment: Melting curve analysis with lissamine acceptor probe, mutant; assay type: binding; conditions: 10^6 copies
Description: as §1, §2

Question: With “5′ GAGAGACATCGCCTCTGGGCT p1A / 5′ TGTTATCACACTGGTGCTAA: primer combination; p1 is a P = N-pPh-NAc mimetic” as the substance, how does the “Cp (crossing point, measure for the amplification efficiency)” value (human Factor V DNA) read?
Answer: 20.80

Question: With “FRET acceptor probe according to example 7b: SEQ ID NO: 3 FRET acceptor probe; p* = P = NS(O)2-rhodamine-B (DNA dA[RhoB]dGdGdGdAdTdCdTdGdCdTdCdTdTdAdCdAdGdAdTdTdAdGdAdAdGdTdAdGdTdCdCdTdAdTdT-{P})” as the substance, how does the cp value (factor V DNA; 10^4 copies) read?
Answer: 26

Question: And the cp value (factor V DNA; 10^6 copies)?
Answer: 22

Question: What about the “melting point for the wild type” value [1] of the same substance?
Answer: 64.69 °C

Question: What about the “melting point for the mutant” value [2] of the same substance?
Answer: 56.24 °C
